Where “and” joins values, the source holds several entries; their conditions need not be identical. Equal entries are not always repeated. Marks after values point to notes of the source that are not given here.
Assays:
reactive astrocytes [1] = test: TNFα concentration in conditioned media from reactive astrocytes (cytometry); assay type: cell-based, mice
Protocol: (§1) Mice mixed glial cells were cultured as described by McCarthy et al., 1980. Primary mice glial cells were prepared from the cortical of newborn Swiss mice (1 day). Briefly, meninges and blood vessels of the mice cortex were removed and placed in ice-cold medium of L15 containing 2% of PS and 1% of BSA. Tissues were dissociated with 0.25% trypsin-EDTA at 37° C. for 10 min. Cells were then submitted to a supplementary incubation of 15 min at 37° C. in presence of deoxyribonuclease I (final concentration of 0.5 mg/mL). Cells were then pelleted (5 min at 1200 rpm) and trypsinization was stopped by adding DMEM supplemented with 10% FCS, 1 mM of Na/pyruvate (PanBiotech, ref: P04-43100, batch: 3470914) and 2% PS. Cells suspension was mechanically dissociated and filtered through 40 μm diameter nylon meshes (BD Falcon, Ref: 352340). The cells were collected by centrifugation at 1200 rpm/min for 10 min, re-suspended in culture medium and then plated in culture flasks (Dutscher, ref: 690175). Cells were seeded at a density of 1.25×10^5 cells/cm2 and cultured in 5% CO2 at 37° C. Medium was changed three times per week.
(§2) Purification of astrocytes cells was done as described by Kim et al., 2006. After 14 days, the flasks were shaken on a rotary shaker at 200 rpm for 3 h. The resulting cell suspension rich in microglia was removed. Cells remaining in the flasks from which microglia had been harvested correspond to astrocytes at a purity of about 90%. Astrocytes were cultured in DMEM supplemented with 10% FCS, 1 mM of Na/pyruvate and 2% at 5% CO2 and 37° C. in flasks of 25 cm2.
(§3) When reaching confluence, primary astroglial cells were first incubated for 2 hours with Fingolimod (1 nM, 10 nM) or Laquinimod (1 nM, 10 nM, 100 nM, 1 μM, 10 μM) alone or in co-incubation or control medium.
(§4) At the end of 2 hours treatment with test compounds, astrocyte culture was activated with serum-free DMEM containing LPS (100 ng/mL; Sigma, Serotype 026:B6, ref: L2654; batch: 123M4052V) and IFNγ (10 ng/mL; Peprotech; ref: 315-05; batch: 061398 L0513) for 6 hours (Kim and Lee, 2013; Shu et al., 2014; Gresa-Arribas et al., 2012) in absence or presence of test compounds.
(§5) To obtain LPS/INFγ free conditioned media (CM), after 6 hours, cells were washed twice with DMEM and medium was replaced with DMEM supplemented with B27 (2%), L-glutamine (2 mM), PS solution (2%). LCM was collected 24 hrs after. For control, cells were incubated with medium not containing LPS/INFγ. […]

[2] = system: astrocytic and microglial activation and acute axonal damage; details: cited from earlier work; for demyelination, astrocytic and microglial activation: Kim, 2011
reactive astrocytes [3] = test: IL-6 concentration in conditioned media from reactive astrocytes (cytometry); assay type: cell-based, mice; details: LPS+IFNγ
Protocol: as §1, §2, §3, §4, §5

reactive astrocytes [4] = test: CCL7 release in conditioned media from reactive astrocytes (ELISA); assay type: cell-based, mice; details: LPS+IFNγ
Protocol: as §1, §2, §3, §4, §5

cortical neurons = test: Cortical neuron survival after 72 h with conditioned media from reactive astrocytes; assay type: cell-based, mice; details: conditioned media 72 h; for % cell survival: % of control
Protocol: Mice cortical neurons were cultured as described by Singer et al., 1999. Briefly pregnant female mice of 13 days gestation were killed by cervical dislocation (Mice Swiss; Janvier Lab). The foetuses were removed from the uterus. The cortexes were removed and placed in ice-cold medium of Leibovitz (L15, Panbiotech, ref: P04-27055, batch: 9310614) containing 2% of Penicillin 10.000 U/ml and Streptomycin 10 mg/ml (PS, Panbiotech, ref: P06-07100, batch: 8460514) and 1% of Bovine Serum Albumin (BSA, Panbiotech, Ref: P06-1391100, batch: H140603). Cortexes were dissociated by trypsin-EDTA (Panbiotech, Ref: P10-023100, batch: 3330914) for 20 min at 37° C. The reaction was stopped by the addition of Dulbecco's modified Eagle's Medium (DMEM, Panbiotech, Ref P04-03600, batch: 1300714) containing DNasel grade II (0.1 mg/ml, Panbiotech, ref: P60-37780100, batch: H140508) and 10% of Foetal Calf Serum (FCS, Invitrogen, ref: 10270-098, batch: 4103912K). Cells were then mechanically dissociated by 3 serial passages through a 10 ml pipette. Cells were then centrifuged at 515×g for 10 min at 4° C. The supernatant was discarded and the pellet of cells was re-suspended in a defined culture medium consisting of Neurobasal (Nb, Invitrogen, ref: 21103, batch: 1673148) supplemented with B27 (2%, Invitrogen, ref: 17504, batch: 1672731), L-glutamine (2 mM, Panbiotech, ref: P04-80100, batch: 6620314), 2% of PS solution and 10 ng/ml of Brain-derived neurotrophic factor (BDNF, PanBiotech, Ref: CB-1115002, Batch: 121027). Viable cells were counted in a Neubauer cytometer using the trypan blue exclusion test. The cells were seeded at a density of 30 000 cells/well in 96 well-plates pre-coated with poly-D-lysine (Greiner ref: 655930, batch: E140305F) and were cultured at +37° C. in a humidified air (95%)/CO2 (5%) atmosphere.
as §1, §2, §3
At the end of 2 hours treatment with test compounds, astrocyte culture was activated with serum-free DMEM containing LPS (100 ng/mL; Sigma, Serotype 026:B6, ref: L2654; batch: 123M4052V) and IFNγ (10 ng/mL; Peprotech; ref: 315-05; batch: 061398 L0513) for 6 hours (Kim and Lee, 2013; Shu et al., 2014; Gresa-Arribas et al., 2012) in absence or presence of test compounds. […]

reactive astrocytes [5] = test: GM-CSF concentration in conditioned media from reactive astrocytes (cytometry); assay type: cell-based, mice; details: LPS+IFNγ
Protocol: as §1, §2, §3, §4, §5

[6] = Mus musculus, Astrocyte, 1 nM, LPS+IFNγ, read-out: % inhibition of TNFα release
[7] = Mus musculus, Astrocyte, 10 nM, LPS+IFNγ, read-out: % inhibition of TNFα release
[8] = Mus musculus, Astrocyte, 1 nM, read-out: % inhibition of IL-6 release
[9] = Mus musculus, Astrocyte, 10 nM, read-out: % inhibition of IL-6 release
[10] = Mus musculus, Astrocyte, 1 nM, read-out: % inhibition of GM-CSF release
[11] = Mus musculus, Astrocyte, 10 nM, read-out: % inhibition of GM-CSF release

Question: Which results are given for `CCN(C(=O)c1c(O)c2c(Cl)cccc2n(C)c1=O)c1ccccc1` [Laquinimod]?
Answer: TNFa content (reactive astrocytes [1]; 1 nM, LPS+IFNγ): 3257.64 pg/mL; TNFa content (reactive astrocytes [1]; 10 nM, LPS+IFNγ): 2440.81 pg/mL; TNFa content (reactive astrocytes [1]; 100 nM, LPS+IFNγ): 2464 pg/mL; TNFa content (reactive astrocytes [1]; 1 μM, LPS+IFNγ): 2769 pg/mL and 2769.46 pg/mL; inhibition at 0.001 µM (reactive astrocytes [1]; [6]): 0.7%; inhibition at 0.01 µM (reactive astrocytes [1]; [7]): 25.6%; inhibition at 0.1 µM (reactive astrocytes [1]; Mus musculus, Astrocyte, 100 nM, LPS+IFNγ, read-out: % inhibition of TNFα release): 24.9%; inhibition at 1 µM (reactive astrocytes [1]; Mus musculus, Astrocyte, 1 μM, LPS+IFNγ, read-out: % inhibition of TNFα release): 15.6%; acute axonal damage ([2]; Brück, 2012): reduces it completely; demyelination, astrocytic and microglial activation [2]: partial response; IL-6 content (reactive astrocytes [3]; 1 nM): 6198 pg/mL; IL-6 content (reactive astrocytes [3]; 10 nM): 6315 pg/mL; IL-6 content (reactive astrocytes [3]; 1 μM): 2640 pg/mL; inhibition at 0.001 µM (reactive astrocytes [3]; [8]): 12.3%; inhibition at 0.01 µM (reactive astrocytes [3]; [9]): 10.6%; inhibition at 1 µM (reactive astrocytes [3]; Mus musculus, Astrocyte, 1 μM, read-out: % inhibition of IL-6 release): 62.6%; CCL-7 content (reactive astrocytes [4]; 1 nM): 26.447 pg/mL; CCL-7 content (reactive astrocytes [4]; 10 nM): 21.093 pg/mL; inhibition at 0.001 µM (reactive astrocytes [4]; Mus musculus, Astrocyte, 1 nM): 39%; inhibition at 0.01 µM (reactive astrocytes [4]; Mus musculus, Astrocyte, 10 nM): 51.3%; inhibition at 0.1 µM (reactive astrocytes [4]; Mus musculus, Astrocyte, 100 nM): 58.5%; inhibition at 1 µM (reactive astrocytes [4]; Mus musculus, Astrocyte, 1 μM): 62.8%; % cell survival (cortical neurons; 1 nM): 73%; % cell death (cortical neurons; 1 nM): 27%; % inhibition of cortical neuron cell death (cortical neurons; 1 nM): 20.6* %; % cell survival (cortical neurons; 10 nM): 80%; % cell death (cortical neurons; 10 nM): 20%; % inhibition of cortical neuron cell death (cortical neurons; 10 nM): 41.2%; % cell survival (cortical neurons; 100 nM): 83%; % cell death (cortical neurons; 100 nM): 17%; % inhibition of cortical neuron cell death (cortical neurons; 100 nM): 50.0%; % cell survival (cortical neurons; 1 μM): 92%; % cell death (cortical neurons; 1 μM): 8%; % inhibition of cortical neuron cell death (cortical neurons; 1 μM): 76.5%; GM-CSF content (reactive astrocytes [5]; 1 nM): 207.71 pg/mL; GM-CSF content (reactive astrocytes [5]; 10 nM): 209.51 pg/mL; GM-CSF content (reactive astrocytes [5]; 100 nM): 179.39 pg/mL; GM-CSF content (reactive astrocytes [5]; 1 μM): 154 pg/mL and 154.26 pg/mL; inhibition at 0.001 µM (reactive astrocytes [5]; [10]): 14.5%; inhibition at 0.01 µM (reactive astrocytes [5]; [11]): 13.7%; inhibition at 0.1 µM (reactive astrocytes [5]; Mus musculus, Astrocyte, 100 nM, read-out: % inhibition of GM-CSF release): 26.1%; inhibition at 1 µM (reactive astrocytes [5]; Mus musculus, Astrocyte, 1 μM, read-out: % inhibition of GM-CSF release): 36.5%

Question: With `CCCCCCCCc1ccc(CCC(N)(CO)CO)cc1` [Fingolimod] as the compound, how does the “effect on TNFα release” value (reactive astrocytes [1]; 1 nM and 10 nM) read?
Answer: The value was “didn't show any significant effect”.

Question: What about the TNFa content (reactive astrocytes [1]; 1 nM, LPS+IFNγ) of the same compound?
Answer: The TNFa content was 3170.03 pg/mL.

Question: And the TNFa content (reactive astrocytes [1]; 10 nM, LPS+IFNγ)?
Answer: Its TNFa content is 3053.66 pg/mL.

Question: What about the inhibition at 0.001 µM (reactive astrocytes [1]; [6]) of the same compound?
Answer: The inhibition at 0.001 µM was 3.4%.

Question: What about the inhibition at 0.01 µM (reactive astrocytes [1]; [7]) of the same compound?
Answer: The inhibition at 0.01 µM was 6.9%.

Question: What about the “demyelination, astrocytic and microglial activation” value [2] of the same compound?
Answer: Its value is “partial response”.

Question: What about the IL-6 content (reactive astrocytes [3]; 1 nM) of the same compound?
Answer: Its IL-6 content is 5421 pg/mL.

Question: What about the IL-6 content (reactive astrocytes [3]; 10 nM) of the same compound?
Answer: The IL-6 content was 4744 pg/mL.

Question: And the inhibition at 0.001 µM (reactive astrocytes [3]; [8])?
Answer: Its inhibition at 0.001 µM is 23.3%.

Question: And the inhibition at 0.01 µM (reactive astrocytes [3]; [9])?
Answer: Its inhibition at 0.01 µM is 32.9%.

Question: And the CCL-7 content (reactive astrocytes [4]; 1 nM)?
Answer: Its CCL-7 content is 24.396 pg/mL.

Question: And the inhibition at 0.001 µM (reactive astrocytes [4]; Mus musculus, Astrocyte, 1 nM)?
Answer: Its inhibition at 0.001 µM is 43.7%.

Question: And the inhibition at 0.01 µM (reactive astrocytes [4]; Mus musculus, Astrocyte, 10 nM)?
Answer: Its inhibition at 0.01 µM is 59.9%.

Question: And the “% cell survival” value (cortical neurons; 1 nM)?
Answer: The value was 80%.

Question: And the “% cell death” value (cortical neurons; 1 nM)?
Answer: The value was 20%.

Question: And the “% inhibition of cortical neuron cell death” value (cortical neurons; 1 nM)?
Answer: Its value is 41.2%.

Question: What about the “% cell survival” value (cortical neurons; 10 nM) of the same compound?
Answer: The value was 85%.

Question: What about the “% cell death” value (cortical neurons; 10 nM) of the same compound?
Answer: Its value is 15%.

Question: And the “% inhibition of cortical neuron cell death” value (cortical neurons; 10 nM)?
Answer: The value was 55.9* %.

Question: What about the GM-CSF content (reactive astrocytes [5]; 1 nM) of the same compound?
Answer: Its GM-CSF content is 204.09 pg/mL.

Question: What about the GM-CSF content (reactive astrocytes [5]; 10 nM) of the same compound?
Answer: The GM-CSF content was 147.56 pg/mL.

Question: And the GM-CSF release (reactive astrocytes [5]; 10 nM)?
Answer: Its GM-CSF release is 148 pg/mL.

Question: What about the inhibition at 0.001 µM (reactive astrocytes [5]; [10]) of the same compound?
Answer: Its inhibition at 0.001 µM is 16%.

Question: And the inhibition at 0.01 µM (reactive astrocytes [5]; [11])?
Answer: Its inhibition at 0.01 µM is 39.2%.

Source: patent publication US20160074380A1, “Treatment Of Neurodegenerative Diseases With Combination Of Laquinimod And Fingolimod” (TEVA PHARMACEUTICAL INDUSTRIES LTD., priority 2014, published 2016)
